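Each compound was tested at five concentrations against cells in 96-well plates for 48 hours. The concentration for 50% growth inhibition is given as GI50. TGI denotes the concentration required for complete inhibition of growth.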
Legend:
Assay in all cases: growth of human tumour cells (NCI), 48 h
CCRF-CEM leukemia = test system: CCRF-CEM leukemia
COLO 205 colon = test system: COLO 205 colon
DU-145 prostate = test system: DU-145 prostate
HL-60(TB) leukemia = test system: HL-60(TB) leukemia
MALME-3M melanoma = test system: MALME-3M melanoma
NCI-H226 lung = test system: NCI-H226 lung
SK-MEL-28 melanoma = test system: SK-MEL-28 melanoma
SK-MEL-5 melanoma = test system: SK-MEL-5 melanoma
SNB-75 CNS = test system: SNB-75 CNS
KM12 colon = test system: KM12 colon

Row | Structure (SMILES) | GI50 (CCRF-CEM leukemia) | TGI (CCRF-CEM leukemia) | GI50 (COLO 205 colon) | TGI (COLO 205 colon) | GI50 (DU-145 prostate) | TGI (DU-145 prostate) | GI50 (HL-60(TB) leukemia) | TGI (HL-60(TB) leukemia) | GI50 (MALME-3M melanoma) | TGI (MALME-3M melanoma) | GI50 (NCI-H226 lung) | TGI (NCI-H226 lung) | GI50 (SK-MEL-28 melanoma) | TGI (SK-MEL-28 melanoma) | GI50 (SK-MEL-5 melanoma) | TGI (SK-MEL-5 melanoma) | GI50 (SNB-75 CNS) | TGI (SNB-75 CNS) | GI50 (KM12 colon) | TGI (KM12 colon)
1 | Nc1ncn([C@@H]2O[C@H](CO)[C@@H](O)[C@H]2O)c(=O)n1 | 1.95 µM | > 100 µM | 1.21 µM | 3.02 µM | 0.775 µM | 9.34 µM | 0.699 µM | 4.91 µM | 3.65 µM | 25.3 µM | 1.39 µM | 9.63 µM | 2.68 µM | 11.1 µM | 2.15 µM | 7.04 µM | 1.63 µM | 6.2 µM |  | 
2 | COc1cc(N(CCC#N)CCC#N)ccc1/C(N=Nc1ccc(Cl)cc1)=N/NC(=O)c1cc(Br)ccc1O | 74 µg/mL | > 150 µg/mL | 41.7 µg/mL | 127 µg/mL | 143 µg/mL | > 150 µg/mL | 62.1 µg/mL | > 150 µg/mL | > 150 µg/mL | > 150 µg/mL | 32.4 µg/mL | 128 µg/mL | > 150 µg/mL | > 150 µg/mL | 82 µg/mL | > 150 µg/mL | 25 µg/mL | 95.1 µg/mL | 48 µg/mL | 129 µg/mL
3 | CNCCOC(=O)/C=C1\CC[C@H]2[C@@H]([C@@H](O)C(=O)[C@@H]3[C@]2(C)CC[C@H](O)[C@]3(C)C(=O)OC)[C@H]1C | 0.291 µM | 1.09 µM | 1.55 µM | 3.04 µM | 0.188 µM | 0.371 µM | 0.244 µM | 0.687 µM | 0.324 µM | 1.42 µM | 0.566 µM | 1.99 µM | 1.06 µM | 2.61 µM | 0.252 µM | 0.734 µM | 0.396 µM | 1.74 µM | 0.564 µM | 2.12 µM
4 | CC(=O)ON1CCCC(P(=O)(OCCSC(=O)C(C)(C)C)OCCSC(=O)C(C)(C)C)C1=O (configuration not stated) | 0.283 µM | 67.4 µM | 3.88 µM | > 100 µM | 3.08 µM | > 100 µM | 1.68 µM | 11.3 µM | 0.537 µM | 9.05 µM | 2.27 µM | 26.4 µM | 1.56 µM | 15.5 µM | 1.21 µM | 4.15 µM | 1.4 µM | 23.3 µM | 1.21 µM | 13.8 µM
5 | COc1cc(Cl)cc(-c2nn(-c3cccc(NC(=O)c4ccc(N5CCOCC5)c(C(F)(F)F)c4)c3)cc2-c2ccncc2)c1 | 3.88 µM | > 100 µM | 22.2 µM | > 100 µM | > 100 µM | > 100 µM | 4.19 µM | 33.2 µM | 28.3 µM | > 100 µM | 93.4 µM | > 100 µM | 14.8 µM | > 100 µM | 16.5 µM | > 100 µM | 2.08 µM | > 100 µM | 5.38 µM | > 100 µM
6 | N#Cc1nn(-c2cc(=O)[nH]c3ccc(Cl)cc23)c(N)c1C#N | > 100 µM | > 100 µM | 59.3 µM | > 100 µM | > 100 µM | > 100 µM | > 100 µM | > 100 µM | > 100 µM | > 100 µM | > 100 µM | > 100 µM | > 100 µM | > 100 µM | > 100 µM | > 100 µM | > 100 µM | > 100 µM | > 100 µM | > 100 µM
7 | CCN1CCN(c2cc(C)c3cc(NC(=O)c4ccc(OC)c(OC)c4)ccc3n2)CC1 | > 43.1 µM | > 100 µM | 3.23 µM | > 37.6 µM | > 60.6 µM | > 100 µM | 4.19 µM | > 44.8 µM | 13.3 µM | 31.3 µM | > 54.7 µM | > 100 µM | 19.9 µM | > 59.7 µM | 1.17 µM | > 42.3 µM | 5.54 µM | > 61.3 µM | 3.48 µM | > 86.3 µM
8 | Cc1nnc(Nc2ccc(NC(=O)Nc3ccc(Cl)cc3)cc2)c2ccccc12 | 2.38 µM | 5.99 µM | 2.22 µM | 5.29 µM | 4.77 µM | 19.5 µM | 2.03 µM | 4.19 µM | 2.17 µM | 4.79 µM | 3.61 µM | 15.9 µM | 1.63 µM | 3.2 µM | 1.85 µM | 3.5 µM | 1.91 µM | 5.49 µM | 1.99 µM | 4.53 µM
9 | O=C(/C=C/c1ccc[nH]1)c1ccc(-n2ccc(C(F)(F)F)n2)cc1 | 1.06 µM | > 100 µM | > 100 µM | > 100 µM | > 100 µM | > 100 µM | 0.307 µM | 4.12 µM | > 100 µM | > 100 µM |  | > 100 µM | > 100 µM | > 100 µM | > 100 µM | > 100 µM | 0.877 µM | 4.37 µM | 0.463 µM | 8.95 µM
10 | C/C(N=NC(=S)N1CC2CCC(CC2)C1)=C1\C=CC=CN1O |  | 1.29 µM |  | 38.4 µM |  | > 100 µM |  | 3.54 µM |  | > 82.4 µM |  | 21.7 µM |  | > 100 µM |  | 41.1 µM |  | 85.9 µM |  | > 31.6 µM
11 | CCC(C)(C)c1ccc(OCCCCNC(=O)c2ccc3ccccc3c2O)c(C(C)(C)CC)c1 |  | > 100 µM |  | 34.2 µM |  | > 100 µM |  | > 100 µM |  | > 100 µM |  | 44.7 µM |  | > 100 µM |  | 71.4 µM |  | > 100 µM |  | > 100 µM
12 | CN1CCN(c2ccc(Nc3cc(-c4cccc(-n5ccc6cc(C7CC7)cc(F)c6c5=O)c4CO)cn(C)c3=O)nc2)CC1 | 2.19 µM | 7.73 µM | 2.22 µM | 5.72 µM | 7.9 µM | 22 µM | 2.21 µM | 4.4 µM | 2.25 µM | 4.79 µM | 10.2 µM | 30.1 µM | 4.1 µM | 17 µM | 11.9 µM | 31.1 µM | 1.33 µM | 2.96 µM | 6.16 µM | 31.1 µM
13 | CCn1c(O)c(/C=N/NC(=O)C(C)c2ccc(CC(C)C)cc2)sc1=S (configuration not stated) | 0.23 µM | > 100 µM | 1.23 µM | 9.04 µM | 0.365 µM | > 22.1 µM | 0.312 µM | 1.52 µM | 0.331 µM | > 43 µM | 0.797 µM | > 21.4 µM | 1 µM | > 45.8 µM | 0.489 µM | 3.26 µM | 0.241 µM | 0.757 µM | 0.371 µM | > 32.8 µM

From PubChem BioAssay (NCI)
